The values that follow come from patent US10202360B2 (CELGENE QUANTICEL RESEARCH, INC., priority 2016, dated 2019).

What is called IC50 is the point on the concentration scale where inhibition reaches its midpoint. Higher therefore signals lower potency.

SMILES strings stand for the structures.

In the assay the target is CREBBP (Homo sapiens (Human), UniProt Q92793). In words: In vitro enzyme inhibition assay - CREBBP inhibition (AlphaScreen, biotinylated H4-tetraacetyl peptide). It counts as binding. The note with it: Table 28; AlphaScreen, H4-tetraacetyl peptide. In a few lines:
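His-tagged CREBBP expressed in E. coli (50 nM final) incubated with biotinylated H4K5/8/12/16(Ac) peptide (20 nM final) in HEPES pH 7.3 buffer, 0.4% DMSO, 20 min at room temperature.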

CREBBP, sequence (Q92793 1081-1197): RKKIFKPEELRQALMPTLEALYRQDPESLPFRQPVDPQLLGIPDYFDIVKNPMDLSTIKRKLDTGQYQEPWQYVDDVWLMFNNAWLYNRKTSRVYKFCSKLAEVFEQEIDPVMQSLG

`CCn1nc(C)c(Oc2nc(NS(=O)(=O)C(C)C)cc(-c3cc(C)c(=O)n(C)c3)n2)c1C` [Example 127, Propane-2-sulfonic acid [6-(1,5-dimethyl-6-oxo-1,6-dihydro-pyridin-3-yl)-2-(1-ethyl-3,5-dimethyl-1H-pyrazol-4-yloxy)-pyrimidin-4-yl]-amide] showed an IC50 of under 0.5 µM.

`CCCCS(=O)(=O)Nc1cc(-c2cc(C)c(=O)n(C)c2)nc(Oc2c(C)nn(CC)c2C)n1` [Example 128, Butane-1-sulfonic acid [6-(1,5-dimethyl-6-oxo-1,6-dihydro-pyridin-3-yl)-2-(1-ethyl-3,5-dimethyl-1H-pyrazol-4-yloxy)-pyrimidin-4-yl]-amide]: the IC50 is under 0.5 µM.

Consider `CCCS(=O)(=O)Nc1cc(Oc2c(C)cccc2C#N)nc(-c2cc(C)c(=O)n(C)c2)n1` [Example 129, Propane-1-sulfonic acid [6-(2-cyano-6-methyl-phenoxy)-2-(1,5-dimethyl-6-oxo-1,6-dihydro-pyridin-3-yl)-pyrimidin-4-yl]-amide], for which the IC50 was under 0.5 µM.

The molecule `CCCS(=O)(=O)Nc1cc(Oc2c(C#N)cccc2OC)nc(-c2cc(C)c(=O)n(C)c2)n1` [Example 130, Propane-1-sulfonic acid [6-(2-cyano-6-methoxy-phenoxy)-2-(1,5-dimethyl-6-oxo-1,6-dihydro-pyridin-3-yl)-pyrimidin-4-yl]-amide] came in with an IC50 of under 0.5 µM.

`CCS(=O)(=O)Nc1cc(-c2cc(C)c(=O)n(C)c2)nc(OC2CCCC2)n1` [Example 131, Ethanesulfonic acid [2-cyclopentyloxy-6-(1,5-dimethyl-6-oxo-1,6-dihydro-pyridin-3-yl)-pyrimidin-4-yl]-amide] had an IC50 of under 0.5 µM.

`Cc1cc(-c2cc(S(C)(=O)=O)nc(Oc3ccc(F)cc3F)n2)cn(C)c1=O` [Example 132, 5-[2-(2,4-Difluoro-phenoxy)-6-methanesulfonyl-pyrimidin-4-yl]-1,3-dimethyl-1H-pyridin-2-one] registered an IC50 of under 0.5 µM.

Regarding `Cc1cccc(Cl)c1Oc1nc(-c2cc(C)c(=O)n(C)c2)cc(S(C)(=O)=O)n1` [Example 133, 5-[2-(2-Chloro-6-methyl-phenoxy)-6-methanesulfonyl-pyrimidin-4-yl]-1,3-dimethyl-1H-pyridin-2-one], the IC50 is under 0.5 µM.

The molecule `Cc1cc(-c2cc(S(=O)(=O)C(C)C)nc(Oc3ccc(F)cc3F)n2)cn(C)c1=O` [Example 134, 5-[2-(2,4-Difluoro-phenoxy)-6-(propane-2-sulfonyl)-pyrimidin-4-yl]-1,3-dimethyl-1H-pyridin-2-one] came in with an IC50 of under 0.5 µM.

Molecule `Cc1cccc(Cl)c1Oc1nc(-c2cc(C)c(=O)n(C)c2)cc(S(=O)(=O)C(C)C)n1` [Example 135, 5-[2-(2-Chloro-6-methyl-phenoxy)-6-(propane-2-sulfonyl)-pyrimidin-4-yl]-1,3-dimethyl-1H-pyridin-2-one] showed an IC50 of under 0.5 µM.

As to `Cc1cccc(F)c1Oc1nc(NS(=O)(=O)CCCF)cc(-c2ccc(=O)n(C)c2)n1` [Example 136, 3-Fluoro-propane-1-sulfonic acid [2-(2-fluoro-6-methyl-phenoxy)-6-(1-methyl-6-oxo-1,6-dihydro-pyridin-3-yl)-pyrimidin-4-yl]-amide], the IC50 was under 0.5 µM.

The molecule `CCC(C)S(=O)(=O)Nc1cc(-c2ccc(=O)n(C)c2)nc(Oc2c(C)cccc2F)n1` (stereo not shown) [Example 137, Butane-2-sulfonic acid [2-(2-fluoro-6-methyl-phenoxy)-6-(1-methyl-6-oxo-1,6-dihydro-pyridin-3-yl)-pyrimidin-4-yl]-amide] had an IC50 of under 0.5 µM.

`CCCCS(=O)(=O)Nc1cc(-c2cc(C)c(=O)n(C)c2)nc(Oc2c(F)cccc2Cl)n1` [Example 138, Butane-1-sulfonic acid [2-(2-chloro-6-fluoro-phenoxy)-6-(1,5-dimethyl-6-oxo-1,6-dihydro-pyridin-3-yl)-pyrimidin-4-yl]-amide] gave an IC50 of under 0.5 µM.

As for `CCCCS(=O)(=O)Nc1cc(-c2ccc(=O)n(C)c2)nc(Oc2c(F)cccc2Cl)n1` [Example 139, Butane-1-sulfonic acid [2-(2-chloro-6-fluoro-phenoxy)-6-(1-methyl-6-oxo-1,6-dihydro-pyridin-3-yl)-pyrimidin-4-yl]-amide], the IC50 is under 0.5 µM.

Consider `CCS(=O)(=O)Nc1cc(-c2cc(C)c(=O)n(C)c2)nc(OC(C)C)n1` [Example 140, Ethanesulfonic acid [6-(1,5-dimethyl-6-oxo-1,6-dihydro-pyridin-3-yl)-2-isopropoxy-pyrimidin-4-yl]-amide], for which the IC50 was under 0.5 µM.

With `CCCS(=O)(=O)Nc1cc(-c2cc(C)c(=O)n(C)c2)nc(Oc2c(F)cccc2Cl)n1` [Example 141, Propane-1-sulfonic acid [2-(2-chloro-6-fluoro-phenoxy)-6-(1,5-dimethyl-6-oxo-1,6-dihydro-pyridin-3-yl)-pyrimidin-4-yl]-amide], the IC50 is under 0.5 µM.

For the molecule `Cc1cc(-c2cc(NS(=O)(=O)C(C)C)nc(Oc3c(F)cccc3Cl)n2)cn(C)c1=O` [Example 142, Propane-2-sulfonic acid [2-(2-chloro-6-fluoro-phenoxy)-6-(1,5-dimethyl-6-oxo-1,6-dihydro-pyridin-3-yl)-pyrimidin-4-yl]-amide], the IC50 was under 0.5 µM.

In turn, `CCCS(=O)(=O)Nc1cc(-c2ccc(=O)n(C)c2)nc(Oc2c(F)cccc2Cl)n1` [Example 143, Propane-1-sulfonic acid [2-(2-chloro-6-fluoro-phenoxy)-6-(1-methyl-6-oxo-1,6-dihydro-pyridin-3-yl)-pyrimidin-4-yl]-amdie] had an IC50 of under 0.5 µM.

As for `CC(C)S(=O)(=O)Nc1cc(-c2ccc(=O)n(C)c2)nc(Oc2c(F)cccc2Cl)n1` [Example 144, Propane-2-sulfonic acid [2-(2-chloro-6-fluoro-phenoxy)-6-(1-methyl-6-oxo-1,6-dihydro-pyridin-3-yl)-pyrimidin-4-yl]-amide], the IC50 is under 0.5 µM.

Turning to `Cc1cccc(F)c1Oc1nc(NS(=O)(=O)CCCC(F)(F)F)cc(-c2ccc(=O)n(C)c2)n1` [Example 146, 4,4,4-Trifluoro-butane-1-sulfonic acid [2-(2-fluoro-6-methyl-phenoxy)-6-(1-methyl-6-oxo-1,6-dihydro-pyridin-3-yl)-pyrimidin-4-yl]-amide], the IC50 was under 0.5 µM.

As for `CCS(=O)(=O)Nc1cc(-c2cc(C)c(=O)n(C)c2)nc(OC(C)c2ccccc2)n1` (stereo not shown) [Example 147, Ethanesulfonic acid [6-(1,5-dimethyl-6-oxo-1,6-dihydro-pyridin-3-yl)-2-(1-phenyl-ethoxy)-pyrimidin-4-yl]-amide], the IC50 is under 0.5 µM.

Molecule `Cn1cc(-c2cc(NS(=O)(=O)CCCF)nc(Oc3c(F)cccc3Cl)n2)ccc1=O` [Example 148, N-(2-(2-chloro-6-fluorophenoxy)-6-(1-methyl-6-oxo-1,6-dihydropyridin-3 yl)pyrimidin-4-yl)-3-fluoropropane-1-sulfonamide] displayed an IC50 of under 0.5 µM.

On to `Cc1cccc(C#N)c1Oc1nc(NS(=O)(=O)CCC(F)(F)F)cc(-c2ccc(=O)n(C)c2)n1` [Example 149, N-(2-(2-cyano-6-methylphenoxy)-6-(1-methyl-6-oxo-1,6-dihydropyridin-3-yl)pyrimidin-4-yl)-3,3,3-trifluoropropane-1-sulfonamide], for which the IC50 was under 0.5 µM.

Molecule `Cc1cccc(C#N)c1Oc1nc(NS(=O)(=O)CCCC(F)(F)F)cc(-c2ccc(=O)n(C)c2)n1` [Example 150, N-(2-(2-cyano-6-methylphenoxy)-6-(1-methyl-6-oxo-1,6-dihdyropyridin-3-yl)pyrimidin-4-yl)-4,4,4-trifluorobutane-1-sulfonamide] returned an IC50 of under 0.5 µM.

Turning to `CCS(=O)(=O)Nc1cc(-c2cc(C)c(=O)n(C)c2)nc(OCC(F)(F)F)n1` [Example 151, N-(6-(1,5-dimehtyl-6-oxo-1,6-dihydropyridin-3-yl)-2-(2,2,2-trifluoroethoxy)pyrimidin-4-yl)ethanesulfonamide], the IC50 is under 0.5 µM.

In turn, `Cc1cc(-c2cc(NS(=O)(=O)C(C)C)nc(OCC(C)C)n2)cn(C)c1=O` [Example 152, N-(6-(1,5-dimethyl-6-oxo-1,6-dihydropyridin-3-yl)-2-isobutoxypyrimidin-4-yl)propane-2-sulfonamide] yielded an IC50 of under 0.5 µM.

`CCS(=O)(=O)Nc1nc(Oc2c(C)cccc2C)nc(-c2cc(C)c(=O)n(C)c2)n1` [Example 153, Ethanesulfonic acid [4-(1,5-dimethyl-6-oxo-1,6-dihydro-pyridin-3-yl)-6-(2,6-dimethyl-phenoxy)-[1,3,5]triazin-2-yl]-amide] gave an IC50 of under 0.5 µM.

In the case of `CCCS(=O)(=O)Nc1nc(Oc2c(C)cccc2C)nc(-c2cc(C)c(=O)n(C)c2)n1` [Example 154, Propane-1-sulfonic acid [4-(1,5-dimethyl-6-oxo-1,6-dihydro-pyridin-3-yl)-6-(2,6-dimethyl-phenoxy)-[1,3,5]triazin-2-yl]-amide], the IC50 is under 0.5 µM.

Consider `Cc1cccc(C)c1Oc1nc(NS(=O)(=O)C(C)C)nc(-c2cc(C)c(=O)n(C)c2)n1` [Example 155, Propane-2-sulfonic acid [4-(1,5-dimethyl-6-oxo-1,6-dihydro-pyridin-3-yl)-6-(2,6-dimethyl-phenoxy)-[1,3,5]triazin-2-yl]-amide], for which the IC50 was under 0.5 µM.

In turn, `CCCS(=O)(=O)Nc1cc(-c2cc(C)c(=O)n(C)c2)nc(-c2ccccc2)n1` [Example 156, N-(6-(1,5-dimethyl-6-oxo-1,6-dihydropyridin-3-yl)-2-phenylpyrimidin-4-yl)propane-1-sulfonamide] had an IC50 of 0.5 to 5 µM.

In turn, `CCCCS(=O)(=O)Nc1cc(-c2c[nH]c(=O)c(C)c2)nc(Oc2c(C)cccc2Cl)n1` [Example 157, Butane-1-sulfonic acid [2-(2-chloro-6-methyl-phenoxy)-6-(5-methyl-6-oxo-1,6-dihydro-pyridin-3-yl)-pyrimidin-4-yl]-amide] registered an IC50 of under 0.5 µM.

In turn, `Cc1cccc(Cl)c1Oc1nc(NS(=O)(=O)C(C)C)cc(-c2c[nH]c(=O)c(C)c2)n1` [Example 158, Propane-2-sulfonic acid [2-(2-chloro-6-methyl-phenoxy)-6-(5-methyl-6-oxo-1,6-dihydro-pyridin-3-yl)-pyrimidin-4-yl]-amide] showed a concentration for half-maximal inhibition (IC50) of under 0.5 µM.
